US20120196875A1, “PHARMACEUTICAL COMPOSITIONS FOR TREATMENT OF RESPIRATORY AND INFLAMMATORY DISEASES” (BOEHRINGER INGELHEIM INTERNATIONAL GMBH, priority 2010, published 2012)

Test system: Dunkin-Harley guinea pigs (OVA broncho-constriction)
Assay: OVA-induced bronchospasm in sensitized, anaesthetized guinea pigs (modified Konzett-Rössler method, pyrilamin pre-treatment)
Type: in vivo, guinea pig
Method: Male and female Dunkin-Harley guinea pigs were obtained from the Experimental Animal Breeding Centre of Harlan Winkelmann (Germany). After fasting overnight, but with free access to drinking water, animals with body weight of 400-500 g were used.
Bronchospasm was recorded with a modified version of the method of Konzett-Röβler (described by Walland et al, in “Compensation of muscarinic bronchial effects of talsaclidine by concomitant sympathetic activation in guinea pigs”, European Journal of Pharmacology, Volume 330, Issue 2-3, 9 July 1997, Pages 213-219). The animals were ventilated by means of a piston pump (starling ventilator, Hugo Sachs Elektronik, Germany) at a stroke volume of 1 ml/100 g body weight and at a rate of 60 strokes per min. The tubing which connected the tracheal cannula with the ventilator was provided with a branch leading to the bronchospasm transducer (bronchospasm transducer 7020, Ugo Basile, Italy). The air flow measurement is based on the hot wire anemometer principle. Any air flow will reduce the temperature of the wire, thereby decreasing its resistance in proportion of the flow. As the wire element is one arm of a Weaststone bridge, variations in resistance generate a proportional voltage output which feeds the amplifier/recording system (Notocord-hem, Notocord, France). Blood pressure and heart rate are monitored from a carotid artery in order to check the anesthesia and the variability of the preparation.
Guinea pigs were sensitized on 2 consecutive days with 20 μg ovalbumin (OVA) (Sigma, St. Louis, Mo.) and 20 mg Al(OH)3 in 0.5 mL saline, which were administered subcutaneously. Experiments, which included OVA challenge, were conducted 2 weeks after sensitization. Approximately 1 hour before OVA challenge, the animals were anaesthetized with an intraperitoneal injection of 50 mg/kg pentobarbital. Anesthesia was prolonged by intravenous infusion of pentobarbital (15 mg/kg/h) via the jugular vein. A tracheal cannula was introduced after tracheotomy for artificial ventilation. The internal jugular vein was cannulated for drug injection while the left carotid artery was cannulated for measuring blood pressure and heart rate. The test compounds or combinations of compounds were administered orally 2 hours before the OVA challenge. Pyrilamin (anti-histaminic) is injected intravenously at 2 mg/kg, 6 minutes before OVA challenge in order to record the non histamine-related bronchospasm. The OVA challenge induces mast cell degranulation responsible for the bronchospasm due to the release into the lung of inflammatory mediators such as histamine, leukotrienes, prostaglandins and tromboxanes. The pre-treatment of the guinea pigs with pyrilamin prevents the part of the bronchospasm induced by histamine (around 40 to 50% of the bronchospasm). 30 Minutes after the beginning of air flow and blood pressure measurements, bronchoconstriction is triggered by an OVA challenge given at a fixed dose of 50 μg/kg inhaled.
The control group comprises 12 guinea-pigs, test compounds comprise 2 to 4 guinea-pigs. At the end of the experiment, animals are euthanized by an overdose of pentobarbital (100 mg/kg i.v.).
OVA challenge in control guinea-pigs induces an overflow of 33 (±10) ml which is used as 100% bronchospasm. Bronchoprotection of the drug (i.e. inhibition of OVA broncho-constriction) is expressed as a percentage of inhibition of the increase in overflow induced by OVA in the control animals.

[1] = CRTH2 antagonist (1) 0.001 mg/kg p.o. alone
[2] = CRTH2 antagonist (1) 0.003 mg/kg p.o. alone
[3] = CRTH2 antagonist (1) 0.01 mg/kg p.o. alone
[4] = CRTH2 antagonist (1) 0.03 mg/kg p.o. alone
[5] = CRTH2 antagonist (1) 0.1 mg/kg p.o. alone
[6] = CRTH2 antagonist (1) 0.3 mg/kg p.o. alone
[7] = CRTH2 antagonist (1) 1.0 mg/kg p.o. alone
[8] = CRTH2 antagonist (1) 3.0 mg/kg p.o. alone
[9] = CRTH2 antagonist (1) 10.0 mg/kg p.o. alone

Compound | overflow (Roflumilast 0.03 mg/kg p.o. alone, 2 hours before OVA challenge) [mL] | bronchoprotection (Roflumilast 0.03 mg/kg p.o. alone, 2 hours before OVA challenge, inhibition of OVA-induced overflow vs control) [%] | bronchoprotection [1] [%] | overflow [1] [mL] | bronchoprotection [2] [%] | overflow [2] [mL] | bronchoprotection [3] [%] | overflow [3] [mL] | bronchoprotection [4] [%] | overflow [4] [mL] | bronchoprotection [5] [%] | overflow [5] [mL] | bronchoprotection [6] [%] | overflow [6] [mL] | bronchoprotection [7] [%] | overflow [7] [mL] | bronchoprotection [8] [%] | overflow [8] [mL] | bronchoprotection [9] [%] | overflow [9] [mL]
O=C(Nc1c(Cl)cncc1Cl)c1ccc(OC(F)F)c(OCC2CC2)c1 [Roflumilast, roflumilast, reference compound] | 28 | 15 |  |  |  |  |  |  |  |  |  |  |  |  |  |  |  |  |  | 
CN(C)c1nc(Cc2ccc(NC(=O)c3ccc(C(F)(F)F)cc3)cc2)nc(N(C)C)c1CC(=O)O [CRTH2 antagonist (1), [4,6-bis(dimethylamino)-2-(4-(4-(trifluoromethyl)benzamido)-benzyl)pyrimidin-5-yl]acetic acid] |  |  | 0 | 38 | 0 | 35 | 0 | 40 | 0 | 33 | 0 | 41 | 24 | 25 | 42 | 19 | 64 | 12 | 70 | 10
